Test results as given in patent US9387249B2, “Methods of treating hypertension with at least one angiotensin II receptor blocker and chlorthalidone” (Takeda Pharmaceutical Company Limited, priority 2008, dated 2016).

Columns and labels:
Assay type in all cases: in vivo, human
[1] = test system: patients with stage 2 hypertension; assay: Phase 3 randomized double-blind study: safety (adverse events, laboratory tests)
Text: More specifically, as will be discussed in more detail below, the purpose of this study is evaluate the change in 24-hour mean systolic blood pressure (SBP) by ambulatory blood pressure monitoring (ABPM) in response to (5-methyl-2-oxo-1,3-dioxol-4-yl)methyl 2-ethoxy-1-{[2′-(5-oxo-4,5-dihydro-1,2,4-oxadiazol-3-yl)biphenyl-4-yl]methyl}-1H-benzimidazole-7-carboxylate potassium salt plus chlorthalidone compared to placebo plus chlorthalidone for 6 weeks in subjects with uncontrolled essential hypertension. Subjects that qualify for the studied will be discontinued from their current antihypertensive medication. After a 2-week run-in-period, subjects who meet the entry criteria will be given (5-methyl-2-oxo-1,3-dioxol-4-yl)methyl 2-ethoxy-1-{[2′-(5-oxo-4,5-dihydro-1,2,4-oxadiazol-3-yl)biphenyl-4-yl]methyl}-1H-benzimidazole-7-carboxylate potassium salt plus chlorthalidone or placebo plus chlorthalidone once daily for 6 weeks. Blood pressure will be monitored during study visits and ABPM will be used to evaluate blood pressure for 24-hour periods twice during the study. Subjects will receive physical examinations including measurement of vital signs and blood and urine samples will be collected (for analyses related to safety monitoring during study visits). […]

[2] = test system: patients with stage 2 hypertension; assay: Phase 3 randomized double-blind study: change from baseline in 24-hour mean SBP by ambulatory blood pressure monitoring (ABPM); conditions: Chlorthalidone 25 mg + placebo once daily, oral, 6 weeks
Experimental: (§1) This is a phase 3, multi-center, randomized, parallel group, double-blind, placebo-controlled, study to evaluate the efficacy and safety of (5-methyl-2-oxo-1,3-dioxol-4-yl)methyl 2-ethoxy-1-{[2′-(5-oxo-4,5-dihydro-1,2,4-oxadiazol-3-yl)biphenyl-4-yl]methyl}-1H-benzimidazole-7-carboxylate potassium salt when combined with chlorthalidone 25 mg once daily (QD) in subjects with uncontrolled essential hypertension.
(§2) More specifically, as will be discussed in more detail below, the purpose of this study is evaluate the change in 24-hour mean systolic blood pressure (SBP) by ambulatory blood pressure monitoring (ABPM) in response to (5-methyl-2-oxo-1,3-dioxol-4-yl)methyl 2-ethoxy-1-{[2′-(5-oxo-4,5-dihydro-1,2,4-oxadiazol-3-yl)biphenyl-4-yl]methyl}-1H-benzimidazole-7-carboxylate potassium salt plus chlorthalidone compared to placebo plus chlorthalidone for 6 weeks in subjects with uncontrolled essential hypertension. Subjects that qualify for the studied will be discontinued from their current antihypertensive medication. […] Blood pressure will be monitored during study visits and ABPM will be used to evaluate blood pressure for 24-hour periods twice during the study. […]

[3] = test system: patients with stage 2 hypertension; assay: Phase 3 randomized double-blind study: change in clinic SBP; conditions: chlorthalidone plus placebo once daily
Experimental: as §1, §2

## CCOc1nc2cccc(C(=O)OCc3oc(=O)oc3C)c2n1Cc1ccc(-c2ccccc2-c2noc(=O)[nH]2)cc1.[K] [Azilsartan medoxomil, (5-methyl-2-oxo-1,3-dioxol-4-yl)methyl 2-ethoxy-1-{[2′-(5-oxo-4,5-dihydro-1,2,4-oxadiazol-3-yl)biphenyl-4-yl]methyl}-1H-benzimidazole-7-carboxylate potassium salt]
[1]; azilsartan medoxomil added to chlorthalidone
  Effect on the hypokalemia seen with chlorthalidone alone: attenuated the hypokalemia

## NS(=O)(=O)c1cc(C2(O)NC(=O)c3ccccc32)ccc1Cl (stereo not shown) [Chlorthalidone, 2-chloro-5-(1-hydroxy-3-oxo-1,2-dihydroisoindol-1-yl)-benzenesulfonamide]
[2]
  Δ from baseline, mean, Absolute, Mean 24-Hour SBP by ABPM: −15.9 mm Hg
[3]
  Absolute reduction in clinic SBP: −21.8 mm Hg
[1]; chlorthalidone plus placebo compared with chlorthalidone plus azilsartan medoxomil
  Hypokalemia, frequency: more frequent
